Results published in US11053241B2, “TYK2 inhibitors and uses thereof” (Nimbus Lakshmi, Inc., priority 2018, dated 2021).

Tests used:
[1] = tested on: IL-12 induced STAT4 phophorylation mediated by TYK2/JAK2 (heterodimeric complex); assay: IL-12 Induced pSTAT4 in Human PBMC; assay type: cell-based; conditions: 1.7 ng/mL IL-12 for 30 minutes, 1 hr compound preincubation
Description: (§1) Human PBMC were isolated from buffy coat and were stored frozen for assays as needed. Cells for assay were thawed and resuspended in complete media containing serum, then cells were diluted to 1.67 E6 cells/mL so that 120 μl per well is 200,000 cells. 15 μl of compound or DMSO was added to the well at the desired concentrations and incubated at 1 hr at 37 C. 15 μl of stimulus (final concentration of 1.7 ng/mL IL-12) was added for 30 minutes prior to pSTAT4 and total STAT4 analysis using cell lysates prepared and analyzed by MSD reagents as per manufacturer protocol. The final DMSO concentration of compound in the assay was 0.1%.
The IL-12 Induced pSTAT4 assay evaluates the inhibition of IL-12 induced STAT4 phophorylation mediated by TYK2/JAK2 (heterodimeric complex).

TYK2 kinase domain (JH1) = TYK2 kinase domain (JH1) (Homo sapiens (Human), UniProt P29597); assay: TYK2 Radioactive Kinase Assay; assay type: biochemical; conditions: compound at 10 μM; ATP at 10 μM; 120 min at room temp
Description: (§2) Peptide substrate, [KKSRGDYMTMQIG], (20 μM) was prepared in reaction buffer (20 mM Hepes pH 7.5, 10 mM MgCl2, 1 mM EGTA, 0.02% Brij35, 0.02 mg/mL BSA, 0.1 mM […], 2 mM DTT, 1% DMSO). TYK2 (Invitrogen) kinase was added, followed by compounds in DMSO. ^33PATP was added to initiate the reaction in ATP at 10 μM. The kinase reaction was incubated for 120 min at room temp and reactions were spotted onto P81 ion exchange paper (Whatman #3698-915), and then washed extensively in 0.75% phosphoric acid, prior to reading the radioactivity counts. For JAK2 (Invitrogen) kinase assay the peptide substrate poly[Glu:Tyr](4:1), 0.2 mg/ml was used, in the reaction carried out the same as for TYK2.
(§3) The TYK2 and JAK2 radioactive kinase assay measures the percent inhibition at the TYK2 kinase domain (JH1) and the percent inhibition at the JAK2 kinase domain (JH1). Results of the assay are expressed as percent inhibition at 10 μM.

JAK2 kinase domain (JH1) = JAK2 kinase domain (JH1) (Homo sapiens (Human), UniProt O60674); assay: JAK2 Radioactive Kinase Assay; assay type: biochemical; conditions: compound at 10 μM; ATP at 10 μM; substrate poly[Glu:Tyr](4:1)
Description: as §2, §3

[2] = tested on: GM-CSF induced STAT5 phopsphorylation mediated by the JAK2/JAK2 homodimeric complex; assay: GM-CSF Induced pSTAT5 in Human PBMC; assay type: cell-based; conditions: 20 min, GM-CSF 5 ng/mL for 20 minutes, read-out: PBMC_GMCSF_pSTAT5 IC50
Description: as §1
Cells were prepared for analysis as in the above procedure and 15 μl of GM-CSF (final concentration 5 ng/mL) was added for 20 minutes prior to pSTAT5 and total STAT5 analysis using cell lysates prepared and analyzed by MSD reagents as per manufacturer protocol. The final DMSO concentration of compound in the assay was 0.1%.
The GM-CSF Induced pSTAT5 assay is a JAK2 cellular selectivity assay which evaluates inhibition of GM-CSF induced STAT5 phopsphorylation mediated by the JAK2/JAK2 homodimeric complex.

[3] = target: human TYK2 (JH2domain-pseudokinase) (Homo sapiens (Human), UniProt P29597); assay: TYK2 JH2 Domain Binding Assay (KINOMEscan); conditions: 11-point 3-fold dilution, top concentration 30,000 nM, duplicate
Summary of the method: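 Competition binding used an NFkB-DNA-tagged fusion of TYK2 JH2 (G556–D888) expressed in HEK293 extracts against an immobilised ligand, 1 h at room temperature. Bead-bound kinase was quantified by qPCR. Kd came from an 11-point 3-fold series with a 30,000 nM top concentration and 0.9% DMSO, Hill slope −1, run in duplicate.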

Chain of human TYK2 (JH2domain-pseudokinase) (P29597 556-888): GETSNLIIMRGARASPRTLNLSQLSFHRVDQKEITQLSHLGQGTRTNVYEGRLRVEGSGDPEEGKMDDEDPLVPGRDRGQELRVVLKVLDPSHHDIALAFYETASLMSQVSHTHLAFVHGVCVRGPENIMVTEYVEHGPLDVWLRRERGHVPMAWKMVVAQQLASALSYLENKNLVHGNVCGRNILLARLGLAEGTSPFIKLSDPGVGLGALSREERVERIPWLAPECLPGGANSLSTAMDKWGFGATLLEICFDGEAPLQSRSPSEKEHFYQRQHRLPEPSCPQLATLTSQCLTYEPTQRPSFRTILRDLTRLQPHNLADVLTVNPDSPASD
Chain of JAK2 kinase domain (JH1) (O60674 849-1124): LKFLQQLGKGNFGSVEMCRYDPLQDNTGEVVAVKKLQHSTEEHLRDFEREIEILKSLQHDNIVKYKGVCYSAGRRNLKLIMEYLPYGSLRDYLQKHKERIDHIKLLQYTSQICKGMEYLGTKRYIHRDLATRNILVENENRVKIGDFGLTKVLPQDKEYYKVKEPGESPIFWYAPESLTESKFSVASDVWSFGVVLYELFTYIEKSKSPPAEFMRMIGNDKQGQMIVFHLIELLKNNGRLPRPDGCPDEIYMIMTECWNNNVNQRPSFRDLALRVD
Chain of TYK2 kinase domain (JH1) (P29597 897-1176): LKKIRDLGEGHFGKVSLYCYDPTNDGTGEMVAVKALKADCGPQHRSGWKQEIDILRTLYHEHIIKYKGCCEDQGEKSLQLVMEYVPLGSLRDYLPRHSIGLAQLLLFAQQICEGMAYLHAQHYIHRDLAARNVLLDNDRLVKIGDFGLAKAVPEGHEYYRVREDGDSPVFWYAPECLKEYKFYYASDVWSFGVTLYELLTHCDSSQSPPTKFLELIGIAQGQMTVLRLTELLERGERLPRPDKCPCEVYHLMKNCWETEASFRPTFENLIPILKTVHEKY

| IC50 [1] [nM] | inhibition at 10 µM (TYK2 kinase domain (JH1)) [%] | inhibition at 10 µM (JAK2 kinase domain (JH1)) [%] | IC50 [2] [µM] | Kd [3] [nM] | Compound |
| --- | --- | --- | --- | --- | --- |
| < 100 | < 50 | < 50 | – | < 0.2 | CNC(=O)c1cnc(NC(=O)C2CC2)c2[nH]c(-c3ccc(C(=O)N4CCC4)cc3OC)cc12 [Compound I-24, 2-(4-(azetidine-1-carbonyl)-2-methoxyphenyl)-7-(cyclopropanecarboxamido)-N-methyl-1H-pyrrolo[2,3-c]pyridine-4-carboxamide] |
| – | < 50 | < 50 | – | < 0.2 | CNC(=O)c1cnc(NC(=O)C2CC2)c2[nH]c(-c3cccc(-c4cnc(C)cn4)c3)cc12 [Compound I-27, 7-(cyclopropanecarboxamido)-N-methyl-2-(3-(5-methylpyrazin-2-yl)phenyl)-1H-pyrrolo[2,3-c]pyridine-4-carboxamide] |
| – | < 50 | < 50 | – | 0.2 to 1 | CNC(=O)c1ccc(-c2cc3c(C(=O)NC)cnc(NC(=O)C4CC4)c3[nH]2)c(OC)c1 [Compound I-29, 7-(cyclopropanecarboxamido)-2-(2-methoxy-4-(methylcarbamoyl)phenyl)-N-methyl-1H-pyrrolo[2,3-c]pyridine-4-carboxamide] |
| – | < 50 | < 50 | – | 0.2 to 1 | CNC(=O)c1cnc(NC(=O)C2CC2)c2[nH]c(-c3cccc(-c4ncn(C)n4)n3)cc12 [Compound I-32, 7-(cyclopropanecarboxamido)-N-methyl-2-(6-(1-methyl-1H-1,2,4-triazol-3-yl)pyridin-2-yl)-1H-pyrrolo[2,3-c]pyridine-4-carboxamide] |
| – | < 50 | < 50 | – | < 0.2 | CNC(=O)c1cnc(NC(=O)C2CC2)c2[nH]c(-c3cccnc3OC3CC3)cc12 [Compound I-34, 7-(cyclopropanecarboxamido)-2-(2-cyclopropoxypyridin-3-yl)-N-methyl-1H-pyrrolo[2,3-c]pyridine-4-carboxamide] |
| – | < 50 | < 50 | – | 1 to 10 | CNC(=O)c1cnc(NC(=O)C2CC2)c2[nH]c(-c3cc(-c4nccs4)cnc3OC3CC3)cc12 [Compound I-39, 7-(cyclopropanecarboxamido)-2-(2-cyclopropoxy-5-(thiazol-2-yl)pyridin-3-yl)-N-methyl-1H-pyrrolo[2,3-c]pyridine-4-carboxamide] |
| – | < 50 | < 50 | – | 1 to 10 | CNC(=O)c1cnc(NC(=O)C2CC2)c2[nH]c(-c3ccc(=O)n(C4CC4)c3)cc12 [Compound I-40, 7-(cyclopropanecarboxamido)-2-(1-cyclopropyl-6-oxo-1,6-dihydropyridin-3-yl)-N-methyl-1H-pyrrolo[2,3-c]pyridine-4-carboxamide] |
| 100 to 500 | – | – | – | < 0.2 | CNC(=O)c1cnc(NC(=O)C2CC2)c2[nH]c(-c3cccn(-c4ncc(C)s4)c3=O)cc12 [Compound I-54, 7-(cyclopropanecarboxamido)-N-methyl-2-(1-(5-methylthiazol-2-yl)-2-oxo-1,2-dihydropyridin-3-yl)-1H-pyrrolo[2,3-c]pyridine-4-carboxamide] |

The next lines start with the compound.

| Compound | IC50 [1] [nM] | inhibition at 10 µM (TYK2 kinase domain (JH1)) [%] | inhibition at 10 µM (JAK2 kinase domain (JH1)) [%] | IC50 [2] [µM] | Kd [3] [nM] |
| --- | --- | --- | --- | --- | --- |
| CNC(=O)c1cnc(NC(=O)C2CC2)c2[nH]c(-c3ccccc3)cc12 [Compound I-1, 7-(cyclopropanecarboxamido)-N-methyl-2-phenyl-1H-pyrrolo[2,3-c]pyridine-4-carboxamide] | 500 to 1000 | < 50 | < 50 | > 50 | 1 to 10 |
| CNC(=O)c1cnc(NC(=O)C2CC2)c2[nH]c(-c3cccc(-c4nc(C)n(C)n4)c3)cc12 [Compound I-28, 7-(cyclopropanecarboxamido)-2-(3-(1,5-dimethyl-1H-1,2,4-triazol-3-yl)phenyl)-N-methyl-1H-pyrrolo[2,3-c]pyridine-4-carboxamide] | – | < 50 | < 50 | – | 0.2 to 1 |
| CNC(=O)CCCNc1ccc(-c2cc3c(C(=O)NC)cnc(NC(=O)C4CC4)c3[nH]2)c(OC)c1 [Compound I-30, 7-(cyclopropanecarboxamido)-2-(2-methoxy-4-((4-(methylamino)-4-oxobutyl)amino)phenyl)-N-methyl-1H-pyrrolo[2,3-c]pyridine-4-carboxamide] | – | < 50 | < 50 | – | < 0.2 |
| CCn1cc(-c2cc3c(C(=O)NC)cnc(NC(=O)C4CC4)c3[nH]2)ccc1=O [Compound I-31, 7-(cyclopropanecarboxamido)-2-(1-ethyl-6-oxo-1,6-dihydropyridin-3-yl)-N-methyl-1H-pyrrolo[2,3-c]pyridine-4-carboxamide] | – | < 50 | < 50 | – | 1 to 10 |
| CCOc1ncccc1-c1cc2c(C(=O)NC)cnc(NC(=O)C3CC3)c2[nH]1 [Compound I-33, 7-(cyclopropanecarboxamido)-2-(2-ethoxypyridin-3-yl)-N-methyl-1H-pyrrolo[2,3-c]pyridine-4-carboxamide] | – | < 50 | < 50 | – | 0.2 to 1 |
| [2H]C([2H])([2H])NC(=O)c1cnc(NC(=O)C2CC2)c2[nH]c(-c3cccc(-c4ncn(C)n4)n3)cc12 [Compound I-35, 7-(cyclopropanecarboxamido)-N-(methyl-d3)-2-(6-(1-methyl-1H-1,2,4-triazol-3-yl)pyridin-2-yl)-1H-pyrrolo[2,3-c]pyridine-4-carboxamide] | – | < 50 | < 50 | – | 0.2 to 1 |
| CNC(=O)c1cnc(NC(=O)C2CC2)c2[nH]c(-c3cccc(-c4ncn(C)n4)c3F)cc12 [Compound I-36, 7-(cyclopropanecarboxamido)-2-(2-fluoro-3-(1-methyl-1H-1,2,4-triazol-3-yl)phenyl)-N-methyl-1H-pyrrolo[2,3-c]pyridine-4-carboxamide] | – | < 50 | < 50 | – | < 0.2 |
| CCOc1ncc(-c2ccn(C)n2)cc1-c1cc2c(C(=O)NC)cnc(NC(=O)C3CC3)c2[nH]1 [Compound I-37, 7-(cyclopropanecarboxamido)-2-(2-ethoxy-5-(1-methyl-1H-pyrazol-3-yl)pyridin-3-yl)-N-methyl-1H-pyrrolo[2,3-c]pyridine-4-carboxamide] | – | < 50 | < 50 | – | 1 to 10 |
| CNC(=O)c1cnc(NC(=O)C2CC2)c2[nH]c(-c3cc(-c4ccn(C)n4)cnc3OC3CC3)cc12 [Compound I-38, 7-(cyclopropanecarboxamido)-2-(2-cyclopropoxy-5-(1-methyl-1H-pyrazol-3-yl)pyridin-3-yl)-N-methyl-1H-pyrrolo[2,3-c]pyridine-4-carboxamide] | – | < 50 | < 50 | – | 1 to 10 |
| CNC(=O)c1cnc(NC(=O)C2CC2)c2[nH]c(-c3ccc(C(=O)N4CCC4)cc3F)cc12 [Compound I-42, 2-(4-(azetidine-1-carbonyl)-2-fluorophenyl)-7-(cyclopropanecarboxamido)-N-methyl-1H-pyrrolo[2,3-c]pyridine-4-carboxamide] | < 100 | – | – | – | < 0.2 |
| CNC(=O)c1cnc(NC(=O)C2CC2)c2[nH]c(-c3cccc(-c4cn(C)cn4)c3F)cc12 [Compound I-48, 7-(cyclopropanecarboxamido)-2-(2-fluoro-3-(1-methyl-1H-imidazol-4-yl)phenyl)-N-methyl-1H-pyrrolo[2,3-c]pyridine-4-carboxamide] | < 100 | – | – | – | < 0.2 |
| CNC(=O)c1cnc(NC(=O)C2CC2)c2[nH]c(-c3cccc(-c4nnn(C)n4)c3F)cc12 [Compound I-52, 7-(cyclopropanecarboxamido)-2-(2-fluoro-3-(2-methyl-2H-tetrazol-5-yl)phenyl)-N-methyl-1H-pyrrolo[2,3-c]pyridine-4-carboxamide] | < 100 | – | – | – | < 0.2 |
